One series has as its system Streptococcus pneumoniae. Put plainly: Mouse pneumonia induced by intranasal Streptococcus pneumoniae, oral treatment. The class given is in vivo, mice. The protocol: In one implementation, the effectiveness of orally administered ampicillin wrapped in PGNPs for treating mouse pneumonia was validated. Firstly, we induced mouse pneumonia by intranasally administering Streptococcus pneumoniae. At 2 and 8 hours post-induction, the mice received either ampicillin encapsulated in PGNPs or free ampicillin treatment. At 24 hours post-infection, the number of Streptococcus pneumoniae in the mouse lungs and the proportion of neutrophil infiltration were analyzed.
Mice were divided into four groups, with two control groups receiving no ampicillin treatment and two treatment groups receiving ampicillin treatment after infection, with at least 3 mice per group. Mouse pneumonia was induced by intranasal inoculation of 3×10^8 CFUs of Streptococcus pneumoniae. After infection, mice were orally treated with either free ampicillin or PGNPs encapsulated with ampicillin (40 mg kg^−1) at 2 hours and 8 hours post-infection. After 24 hours of infection, the number of Streptococcus pneumoniae in the lungs was measured. Mouse lung tissues were collected and homogenized in sterile PBS, diluted 10-fold in PBS, and plated for colony counting. The proportion of neutrophil infiltration in the lungs of the mice was determined by staining the lung tissues with antibodies and analyzing with a flow cytometer.

Series [1] relates to ampicillin resistance gene ampC. Put plainly: Real-time quantitative PCR of resistance gene ampC and total bacterial 16S rRNA in fecal DNA. Particulars: oral 20 mg kg^-1 once a day 5 days; feces; vs control. The class given is in vivo, mice. The protocol: We orally administered PGNPs-encapsulated ampicillin and free ampicillin to 6-8 weeks old mice for 5 consecutive days, once a day, while the control group was not given any ampicillin treatment. At specific time points during and after the antibiotic treatment period, we collected fecal samples from the mice, extracted DNA, determined DNA concentration, diluted to 10 ng μL^−1, and analyzed the copy number of the ampicillin resistance gene ampC using real-time fluorescence quantitative PCR.
Mice were divided into four groups, with 6 mice in each group. The control group was not treated with antibiotics, while the experimental group was given free antibiotics or antibiotics encapsulated in PGNPs prepared as described above. The experimental group mice were orally administered ampicillin (20 mg kg^−1) and PGNPs- encapsulated ampicillin once a day for 5 consecutive days. At specific time points, mouse feces were collected, and total DNA was extracted from fecal samples, and the concentration was measured. Real-time quantitative PCR was used to amplify the ampicillin resistance gene ampC and the total bacterial 16S rRNA in fecal DNA, and the copy numbers of the two genes were calculated to determine the effect of the two different antibiotic treatments on the abundance of antibiotic-resistant bacteria in the gut.

The nature of series [2]: Loading rate (encapsulation efficiency) of antibiotics in PGNPs by double emulsion, single emulsion and dialysis. The class given is physicochemical. The note with it: hydrophobic antibiotics; Gluc-PEG-PLGA + cationic lipid. The source says:
In one implementation, we used a double-emulsification method to encapsulate hydrophilic antibiotics such as ampicillin and erythromycin, and measured an encapsulation efficiency of 50%-60%. Using a dialysis method, we encapsulated hydrophobic antibiotics such as metronidazole and achieved an encapsulation efficiency of 25%. Encapsulation of hydrophobic antibiotics such as metronidazole using a single-emulsification method yielded an encapsulation efficiency of 20%-40%. Various types of antibiotics with different properties can be encapsulated in nanoparticles using methods such as single-emulsification, double-emulsification, and dialysis, as shown in FIG. 3. The double-emulsification method yielded the highest encapsulation efficiency for hydrophilic antibiotics.
For hydrophilic antibiotics, such as ampicillin and vancomycin, the double emulsion method was used for loading. A water-soluble solution (100 mg mL^−1, 30 μL) of either ampicillin or vancomycin was added to 0.5 mL of dichloromethane containing 0.5 mg DOTAP and 5 mg glucose-PEG-PLGA. […] The concentration of the loaded antibiotics in the nanoparticles was measured using a UV spectrophotometer or HPLC. The loading rate was calculated by dividing the mass of loaded antibiotics by the total mass of antibiotics used for loading. […]

The mark [3] stands for this setting: 40 mg kg^-1 oral at 2 h and 8 h post-infection, 24 h, vs untreated group.

From patent US20230330020A1, “MEDICATION THAT PROTECTS THE INTESTINAL MICROBIOTA AND THEIR PREPARATION METHODS AND APPLICATIONS” (priority 2020, published 2023) come the findings set out here.

For the compound `CC1(C)S[C@@H]2[C@H](NC(=O)[C@H](N)c3ccccc3)C(=O)N2[C@H]1C(=O)O` [Free-Amp, ampicillin], in the series with Streptococcus pneumoniae (setting [3]), the “neutrophil proportion in the lungs” value is on record as “significant decrease” and the “number of lung Streptococcus pneumoniae” value is recorded as “significant decrease”. The “therapeutic effect on mouse pneumonia” value with Streptococcus pneumoniae (oral at 2 and 8 hours post-induction, analysed at 24 hours) is recorded as “good therapeutic effects”. Moreover, in series [1], the “copy number of gut bacterial resistance gene ampC” value is reported as “increased sharply over time”.

Take `Cc1ncc([N+](=O)[O-])n1CCO` [metronidazole]: the “encapsulation efficiency, dialysis method” value in series [2] is recorded as 25%.
